Experimental data: patent US9193990B2, “Bioluminescent metal ion assay” (priority 2013, dated 2015)
One block for each compound: values may come before it.

Tests used:
[1] = test system: firefly luciferase-holoCA fusion protein
Excerpt: The free zinc concentration can be related to the amount of orange emission, or preferably to the levels of luciferase emission and ultimate acceptor emission, or their ratio, which is proportional to zinc concentration.

apoNanoLuc-CA = assay: bioluminescence emission of NanoLuc-CA with fluorescent sulfonamide and competing sulfonamide (FIG. 4); type: binding, human; conditions: 19 nM free Zn, after addition of competing nonfluorescent sulfonamide
Excerpt: In another preferred embodiment the luciferase gene fused to the human carbonic anhydrase II gene is from a variant of the luciferase isolated from the deep sea shrimp Oplophorus gracilirostris (offered commercially by Promega as Nanoluc), and the luciferin is a coelenterazine derivative called furimazine (“Engineered Luciferase Reporter from a Deep Sea Shrimp Utilizing a Novel Imidazopyrazinone Substrate” by Mary P. Hall †, James Unch ‡, Brock F. Binkowski †, Michael P. Valley †, Braeden L. Butler †, Monika G. Wood †, Paul Otto †, Kristopher Zimmerman †, Gediminas Vidugiris †, Thomas Machleidt †, Matthew B. Robers †, Hélène A. Benink †, Christopher T. Eggers †, Michael R. Slater †, Poncho L. Meisenheimer ‡, Dieter H. Klaubert ‡, Frank Fan †, Lance P. Encell *†, and Keith V. Wood † ACS Chem. Biol., 2012, 7 (11), pp 1848-1857DOI: 10.1021/cb3002478). […] An important advantage of this ratiometric approach is that it is essentially independent of time-dependent changes in bioluminescence emission, which are frequently observed. […]

[2] = target: wild type human carbonic anhydrase II (Homo sapiens, UniProt P00918); conditions: free zinc ion, read-out: KD for binding to carbonic anhydrase; cited from earlier work

- displacement of LISSAMINE rhodamine sulfonamide from holoCA sulfonamide binding site [1]: completely displaced
Compound: CC(=O)Nc1nnc(S(N)(=O)=O)s1 [acetazolamide]

- specificity of sulfonamide binding (apoNanoLuc-CA): specific
Compound: fluorescein thioureidyl ethyl phenyl sulfonamide [fluorescein sulfonamide]

Compound: zinc ion
- Kd [2]: ~4 pM
